From paper PMC8344021, “Discovery of Small Molecule Bak Activator for Lung Cancer Therapy” (Theranostics, 2021) come the findings set out here.

In test [1] the test system is Bak oligomerization in A549 cells. In words: Bak oligomerization by cross-linking with BMH. It is filed as cell-based, human. The note with it: 1μM, 24h, mitochondrial fraction, Western blot. Here is the method:
Bak oligomerization was analyzed as described. Briefly, 10 mM Bis (maleimido) hexane (BMH) was added to the mitochondrial fraction dissolved in conjugation buffer (PBS, pH7.2) and 5mM EDTA was added for crosslinking between sulfhydryl groups of Bak proteins. The reaction mixture was incubated for 1h at room temperature. The reaction was stopped by adding quench solution (1M DTT) for 15min at room temperature. The reaction product was subjected to SDS-PAGE gel and analyzed by Western blot using a Bak antibody.
A pivotal step in the apoptosis process is the oligomerization of Bak, [44]. To assess whether BKA-073 affects the ability of Bak to form oligomers in the mitochondrial membrane, a cross-linking study with Bis (maleimido) hexane (BMH) was carried out. […] These findings indicate that BKA-073 can activate Bak through its oligomerization in mitochondria. It is known that formation of Bak oligomers in mitochondria promotes cytochrome c (Cyt c) release to induce apoptosis, [46].
On the technique in general: Immunoblotting shows a protein as a band on a membrane.

Test [2] addresses T1, mouse Bak protein (Mus musculus, UniProt O08734).
T1 construct: His tag; made in house; host or cells: Escherichia coli BL21 DE3
In words: Isothermal titration calorimetry (ITC), mouse protein. Format: binding. Conditions: mouse wild type Bak. How it is done: The binding affinity of BKA-073 with Bak protein was examined by isothermal titration calorimetry (ITC) assay as described, [28]. ITC assay was carried out in the auto-iTC200 instrument (MicroCal, GE) at 25 °C. Purified recombinant human or mouse Bak protein was loaded into a 96 Deepwell PP plate. BKA-073 compound was then titrated stepwise into the protein for a total of 16 injections. Reference power and initial delay were set as 5 µCal/sec and 60s, respectively. A string speed of 750 rpm was used for the ITC measurements. The binding constant (Kd) value was determined by fitting the titration curve to a one-site binding mode, using the Origin software provided by the manufacturer.
Figure S3. […] The binding constant (KD) value was determined by fitting of the titration curve to a 1- […]
(1 x 10^5 cells) was transferred to a 5 ml culture tube, followed by the addition of 5 μl of FITC Annexin V and 5 μl propidium iodide (PI). […] Samples were analyzed by flow cytometry (BD FACSCantoTMII, BD Biosciences, San Jose, CA). ∆% cell death was calculated with the formula: (% cell death treated - % cell death non-treated) as described […]
Fluorescence polarization (FP) assay
Fluorescence polarization assay was carried out as described previously. […] The FP values (in millipolarization units) were measured using a fluorescence microplate reader at 485/530 nm (Gemini XPS, Molecular Devices). […]
Background: ITC needs no label: the signal is the heat of the interaction.

Molecules are shown by their SMILES.

T1 sequence (O08734 whole entry): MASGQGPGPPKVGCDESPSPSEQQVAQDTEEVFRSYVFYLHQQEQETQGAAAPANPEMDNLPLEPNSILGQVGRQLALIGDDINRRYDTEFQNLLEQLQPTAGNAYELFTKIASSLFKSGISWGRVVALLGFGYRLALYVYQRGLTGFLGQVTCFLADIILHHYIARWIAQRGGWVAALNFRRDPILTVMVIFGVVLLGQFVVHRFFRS

`COc1ccc2nc3ccccc3c(NCCNCC(C)O)c2c1` (centres unmarked) [BKA-073]: the Bak oligomerization result in test [1] is “facilitated the formation of Bak dimers and trimers”. Further, the dissociation constant Kd – broadly, the free concentration of one partner at which half of the binding sites on the other are occupied at equilibrium, for simple one-to-one binding – in test [2] is 93.4 ± 7.91 nM.
